Laboratory results published in article PMC10786919, “Design-rules for stapled peptides with in vivo activity and their application to Mdm2/X antagonists” (Nature Communications, 2024).
Values after ≈ are worked out from the molar mass of the structure shown. Like-named read-outs stand apart in the source and are kept apart here. Positions of bridges follow the written chain, without caps; N, C: chain ends. Non-standard residues stand in square brackets, D forms with d. Residues, ends and D or L forms follow the SMILES beside them. Lys(N3) = [N-]=[N+]=NCCCC[C@H](N)C(=O)O; R8 = C=CCCCCCC[C@@](C)(N)C(=O)O; Cba = N[C@@H](CC1CCC1)C(=O)O; S5 = C=CCCC[C@](C)(N)C(=O)O; Aib = CC(C)(N)C(=O)O; βAla = NCCC(=O)O; Sar = CNCC(=O)O

How the values were obtained:
[1] = Lactate dehydrogenase (LDH) release assay; format: cell-based
How it was run: (§1)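 Read-out was lactate dehydrogenase release, reflecting loss of membrane integrity, in reporter-engineered HCT116 cells (p53-responsive β-lactamase) seeded at 8000 cells per well. Final DMSO was 0.5%, and reported values are geometric means from three or more biological repeats.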

[2] = tested on: HCT116 cells; test: Lactate dehydrogenase (LDH) release assay; format: cell-based
How it was run: as §1

[3] = Experimental LogD (partition coefficient); settings: for logD: Partition Coeff LogD
[4] = in vitro
How it was run: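 Azido-peptide permeability was read as loss of NanoBRET signal (donor 450 nm, acceptor 610 nm) after adding NanoBret618-azide at 10 μM final.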

[5] = Solubility assay (kinetic solubility, PBS pH 7); format: physicochemical; settings: pH 7, PBS; for solubility kinetic: pH 7, aqueous buffer, kinetic from dmso stock, read-out: Solubility
How it was run: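 Reference standards were made by diluting the 10 mM stock to 100 µM in acetonitrile:methanol:DMSO 10:80:10. Solubility in µM was calculated as the sample peak area divided by the standard peak area, multiplied by the standard concentration.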

[6] = physchem
[7] = Nanoclick permeability assay EC50
[8] = 0% FBS 4Hr, read-out: LDH: Cytotoxicity assay: EC50
[9] = 10% FBS 4Hr, read-out: LDH: Cytotoxicity assay: EC50

| Structure (SMILES) | EC50 ([1]; LDH: Cytotoxicity assay: EC50) [µM] | LDH: Cytotoxicity assay: % Effect [2] [%] | logD ([3]; not stated) | cell entry EC50 [4, 7] [µM] | Solubility [5] | EPSA [6] [A^2] | Partition Coeff LogD [3] | EC50 [1, 8] [µM] | EC50 [1, 9] [µM] | LDH: Cytotoxicity assay: % Effect ([2]; 0% FBS 4Hr) [%] | LDH: Cytotoxicity assay: % Effect ([2]; 10% FBS 4Hr) [%] | cell entry EC50 [4] [µM] | solubility kinetic [5] [µM] | EC50 ([1]; 10% FBS 16Hr, read-out: LDH: Cytotoxicity assay: EC50) [µM] | LDH: Cytotoxicity assay: % Effect ([2]; 10% FBS 16Hr) [%] | logD ([3]; experimental) |
| --- | --- | --- | --- | --- | --- | --- | --- | --- | --- | --- | --- | --- | --- | --- | --- | --- |
| CC(C)C[C@@H]1NC(=O)[C@H](C)NC(=O)[C@H](Cc2c[nH]c3ccccc23)NC(=O)[C@H](Cc2ccc(O)cc2)NC(=O)[C@H](CCC(=O)O)NC(=O)[C@](C)(NC(=O)[C@H](Cc2ccccc2)NC(=O)[C@H](CO)NC(=O)[C@@H](NC(=O)[C@H](CO)NC(=O)[C@@H](N)CCCCN=[N+]=[N-])[C@@H](C)O)CCCCCCC=CCCC[C@@](C)(C(N)=O)NC(=O)[C@H](CC(C)C)NC1=O [MP-0178] | > 50.6 | 0.79 | 2.59 | 1.31 | Poorly Behaved | 235 |  |  |  |  |  |  |  |  |  |  |
| CC(C)C[C@@H]1NC(=O)[C@H](C)NC(=O)[C@H](Cc2c[nH]c3ccccc23)NC(=O)[C@H](Cc2ccc(O)cc2)NC(=O)[C@H](CCC(=O)O)NC(=O)[C@](C)(NC(=O)[C@H](Cc2ccccc2)NC(=O)[C@H](CO)NC(=O)[C@@H](NC(=O)[C@H](CO)NC(=O)CNC(=O)[C@@H](N)CCCCN=[N+]=[N-])[C@@H](C)O)CCCCCCC=CCCC[C@@](C)(C(N)=O)NC(=O)[C@H](CC(C)C)NC1=O [MP-0179] | > 50.6 | 3.75 | 2.57 | 0.503 | Poorly Behaved | 230 |  |  |  |  |  |  |  |  |  |  |
| CC(=O)N[C@@H](CCCCN=[N+]=[N-])C(=O)NCCC(=O)N[C@@H](CC(C)C)C(=O)N[C@H](C(=O)N[C@@H](Cc1ccccc1)C(=O)N[C@]1(C)CCCCCCC=CCCC[C@@](C)(C(=O)N2CCC[C@H]2C(=O)N[C@@H](C)C(=O)N[C@@H](C)C(N)=O)NC(=O)[C@H](CC2CCC2)NC(=O)[C@H](CCC(N)=O)NC(=O)[C@H](C)NC(=O)[C@H](Cc2c[nH]c3ccccc23)NC(=O)[C@H](Cc2ccc(O)cc2)NC(=O)[C@H](CCC(=O)O)NC1=O)[C@@H](C)O [MP-184] (Ac-[Lys(N3)][βAla]LTF[R8]EYWAQ[Cba][S5]PAA-NH2; staple 6-13) | > 50.6 | 10.48 |  | 0.36 | Poorly Behaved | 201 | Poorly Behaved |  |  |  |  |  |  |  |  |  |
| CC(=O)N[C@@H](CCCCN=[N+]=[N-])C(=O)NCCC(=O)N[C@@H](C)C(=O)N[C@H](C(=O)N[C@@H](Cc1ccccc1)C(=O)N[C@]1(C)CCCCCCC=CCCC[C@@](C)(C(=O)N[C@@H](CO)C(=O)N[C@@H](C)C(=O)N[C@@H](C)C(N)=O)NC(=O)[C@H](CC2CCC2)NC(=O)[C@H](C)NC(=O)[C@H](C)NC(=O)[C@H](Cc2c[nH]c3ccccc23)NC(=O)[C@H](Cc2ccc(O)cc2)NC(=O)[C@H](C)NC1=O)[C@@H](C)O [MP-209, AZIDE-ATSP-7041 (L1A, E5A, Q9A)] (Ac-[Lys(N3)][βAla]ATF[R8]AYWAA[Cba][S5]SAA-NH2; staple 6-13) |  |  | 3.32 |  |  | 197 |  | > 50.6 | > 50 | -1.35 | 7.572 | 0.906 | 2 (≈ 3.63 µg/mL) |  |  |  |
| CC(=O)N[C@@H](CCCCN=[N+]=[N-])C(=O)NCCC(=O)N[C@@H](CC(C)C)C(=O)N[C@H](C(=O)N[C@@H](Cc1ccccc1)C(=O)N[C@]1(C)CCCCCCC=CCCC[C@@](C)(C(=O)N[C@@H](CO)C(=O)NC(C)(C)C(=O)N[C@@H](C)C(N)=O)NC(=O)[C@H](CC2CCC2)NC(=O)[C@H](CCC(N)=O)NC(=O)[C@H](C)NC(=O)[C@H](Cc2c[nH]c3ccccc23)NC(=O)[C@H](Cc2ccc(O)cc2)NC(=O)[C@H](CCC(=O)O)NC1=O)[C@@H](C)O [MP-257] (Ac-[Lys(N3)][βAla]LTF[R8]EYWAQ[Cba][S5]S[Aib]A-NH2; staple 6-13) | 4.55 | -4.69 | 2.97 | 0.469 |  | 210 |  |  |  |  |  |  | 25 (≈ 49.6 µg/mL) |  |  |  |
| CC(=O)N[C@@H](CCCCN=[N+]=[N-])C(=O)NCCC(=O)N[C@@H](CC(C)C)C(=O)N[C@H](C(=O)N[C@@H](Cc1ccccc1)C(=O)N[C@]1(C)CCCCCCC=CCCC[C@@](C)(C(=O)N[C@@H](CO)C(=O)N[C@@H](C)C(=O)N[C@@H](C)C(N)=O)NC(=O)[C@H](CC2CCC2)NC(=O)[C@H](CCC(N)=O)NC(=O)[C@H](C)NC(=O)[C@H](Cc2c[nH]c3ccccc23)NC(=O)[C@H](Cc2ccc(O)cc2)NC(=O)[C@H](CCC(=O)O)NC1=O)C(C)C [MP-258] (Ac-[Lys(N3)][βAla]LVF[R8]EYWAQ[Cba][S5]SAA-NH2; staple 6-13) | > 50.6 | -5.925 | 2.93 | 0.146 |  | 213 |  |  |  |  |  |  | 79 (≈ 155 µg/mL) |  |  |  |
| CC(=O)N[C@@H](CCCCN=[N+]=[N-])C(=O)NCCC(=O)N1CCC[C@H]1C(=O)N[C@H](C(=O)N[C@@H](Cc1ccccc1)C(=O)N[C@]1(C)CCCCCCC=CCCC[C@@](C)(C(=O)N[C@@H](CO)C(=O)N[C@@H](C)C(=O)N[C@@H](C)C(N)=O)NC(=O)[C@H](CC2CCC2)NC(=O)[C@H](CCC(N)=O)NC(=O)[C@H](C)NC(=O)[C@H](Cc2c[nH]c3ccccc23)NC(=O)[C@H](Cc2ccc(O)cc2)NC(=O)[C@H](CCC(=O)O)NC1=O)[C@@H](C)O [MP-259] (Ac-[Lys(N3)][βAla]PTF[R8]EYWAQ[Cba][S5]SAA-NH2; staple 6-13) | > 50.6 | 7.47 | 2.67 | 0.29 |  | 221 |  |  |  |  |  |  | 90.5 (≈ 177 µg/mL) |  |  |  |
| CC(=O)N[C@@H](CCCCN=[N+]=[N-])C(=O)NCCC(=O)NCC(=O)N[C@H](C(=O)N[C@@H](Cc1ccccc1)C(=O)N[C@]1(C)CCCCCCC=CCCC[C@@](C)(C(=O)N[C@@H](CO)C(=O)N[C@@H](C)C(=O)N[C@@H](C)C(N)=O)NC(=O)[C@H](CC2CCC2)NC(=O)[C@H](CCC(N)=O)NC(=O)[C@H](C)NC(=O)[C@H](Cc2c[nH]c3ccccc23)NC(=O)[C@H](Cc2ccc(O)cc2)NC(=O)[C@H](CCC(=O)O)NC1=O)[C@@H](C)O [MP-261] (Ac-[Lys(N3)][βAla]GTF[R8]EYWAQ[Cba][S5]SAA-NH2; staple 6-13) | > 50.6 | 8.826 | 2.62 | 0.273 |  | 222 |  |  |  |  |  |  | 89 (≈ 170 µg/mL) |  |  |  |
| CC(=O)N[C@@H](CCCCN=[N+]=[N-])C(=O)NCCC(=O)N[C@@H](CC(C)C)C(=O)N[C@H](C(=O)N[C@@H](Cc1ccccc1)C(=O)N[C@]1(C)CCCCCCC=CCCC[C@@](C)(C(N)=O)NC(=O)[C@H](CC2CCC2)NC(=O)[C@H](CCC(N)=O)NC(=O)[C@H](C)NC(=O)[C@H](Cc2c[nH]c3ccccc23)NC(=O)[C@H](Cc2ccc(O)cc2)NC(=O)[C@H](CCC(=O)O)NC1=O)[C@@H](C)O [MP-326] (Ac-[Lys(N3)][βAla]LTF[R8]EYWAQ[Cba][S5]-NH2; staple 6-13) | 24.8 | 7.44 | 2.88 | 0.215 |  | 222 |  |  |  |  |  |  | 3 (≈ 5.22 µg/mL) |  |  |  |
| CC(=O)N[C@@H](CCCCN=[N+]=[N-])C(=O)NCCC(=O)N[C@@H](C)C(=O)N[C@H](C(=O)N[C@@H](Cc1ccccc1)C(=O)N[C@]1(C)CCCCCCC=CCCC[C@@](C)(C(=O)N[C@@H](C)C(=O)N[C@@H](C)C(=O)N[C@@H](C)C(N)=O)NC(=O)[C@H](CC2CCC2)NC(=O)[C@H](C)NC(=O)[C@H](C)NC(=O)[C@H](Cc2c[nH]c3ccccc23)NC(=O)[C@H](Cc2ccc(O)cc2)NC(=O)[C@H](C)NC1=O)[C@@H](C)O [MP-350, Azide-ATSP-7041 (L1A, E5A, Q9A, S12A)] (Ac-[Lys(N3)][βAla]ATF[R8]AYWAA[Cba][S5]AAA-NH2; staple 6-13) |  |  | 3.37 |  |  | 196 |  | > 50.7 | > 50 | -5.38 | 108.5 | 0.695 | 2 (≈ 3.59 µg/mL) | > 50.7 | -2.204 | 3.37 |
| CC(=O)N[C@@H](CCCCN=[N+]=[N-])C(=O)NCCC(=O)N[C@@H](CC(C)C)C(=O)N[C@H](C(=O)N[C@@H](Cc1ccccc1)C(=O)N[C@]1(C)CCCCCCC=CCCC[C@@](C)(C(=O)N[C@@H](CO)C(=O)N[C@@H](C)C(=O)N[C@@H](C)C(N)=O)NC(=O)[C@H](CC2CCC2)NC(=O)[C@H](CCC(N)=O)NC(=O)CN(C)C(=O)[C@H](Cc2c[nH]c3ccccc23)NC(=O)[C@H](Cc2ccc(O)cc2)NC(=O)[C@H](CCC(=O)O)NC1=O)[C@@H](C)O [MP-351] (Ac-[Lys(N3)][βAla]LTF[R8]EYW[Sar]Q[Cba][S5]SAA-NH2; staple 6-13) | > 50 | -3.92 | 2.26 | > 10 |  | 193 |  |  |  |  |  |  | 29 (≈ 57.1 µg/mL) |  |  |  |
| CC(=O)N[C@@H](CCCCN=[N+]=[N-])C(=O)N[C@@H](CO)C(=O)NCC(=O)N[C@@H](CO)C(=O)N[C@@H](CC(C)C)C(=O)N[C@H](C(=O)N[C@@H](Cc1ccccc1)C(=O)N[C@]1(C)CCCCCCC=CCCC[C@@](C)(C(=O)N[C@@H](CO)C(=O)N[C@@H](C)C(=O)N[C@@H](C)C(N)=O)NC(=O)[C@H](CC2CCC2)NC(=O)[C@H](CCC(N)=O)NC(=O)[C@H](C)NC(=O)[C@H](Cc2c[nH]c3ccccc23)NC(=O)[C@H](Cc2ccc(O)cc2)NC(=O)[C@H](CCC(=O)O)NC1=O)[C@@H](C)O [MP-619] | > 50.6 | 11.42 | 2.67 | 0.63 |  | 227 |  |  |  |  |  |  | 110 (≈ 235 µg/mL) |  |  |  |
